Tests used:
Format in all cases: cell-based, human
A549 cells [1] = assay: Colony formation assay, A549; details: 50 μM and 150 μM vs 0 μM, about 2 weeks
Description: (1) The cell status was observed under a microscope. Cells in the logarithmic growth phase were selected and digested to make a cell suspension. 20 μl of the cell suspension was taken with a pipette and added to the CountStar disposable cell counting plate for cell counting, and the counting results were recorded.
(2) A 6-well culture plate was used for colony formation assay. Approximately 1,000 cells were inoculated into each well, and the complete culture medium was added to make up the volume to 2.5 ml per well. The cells were shaked in a figure-8 pattern to disperse the cells evenly. The next day, the compound of formula (I) at different concentrations (0 μM, 50 μM, and 150 μM) were added to the corresponding wells according to the assay plan, and incubated in an incubator at 37° C. with 5% CO2 for about 2 weeks. The culture was terminated when visible colonies appeared.
(3) The culture plate was taken out, and the old culture medium was discarded. The cells were gently washed twice with PBS.
(4) 500 μl of 4% paraformaldehyde fixative was added to each well to fix the cells at room temperature for 15 minutes, and then the fixative was discarded.
(5) 500 μl of 0.1% crystal violet solution was added to each well, and cells were stained at room temperature for at least 15 minutes. The crystal violet was discarded, and the staining solution was slowly washed away with running water. […]

A549 cells [2] = assay: Flow cytometry for apoptosis detection (Annexin V-FITC/PI), A549; details: 72 h
Description: (§1) (1) Cells were inoculated in a 6-well plate. When the cell growth density was appropriate, four concentrations (0 μM, 10 μM, 30 μM, and 90 μM) of the compound of formula (I) were added, and placed in an incubator at 37° C. with 5% CO2 to continue culturing for 72 hours.
(§2) (2) After reaching the designated time point, the cell culture plate was taken out from the incubator, and placed in a biological safety cabinet. A 4 ml centrifuge tube was taken and marked. The supernatant in the 6-well plate was pipetted out and added to the corresponding 4 ml centrifuge tube. The cells were gently washed with PBS, and the PBS was added to the corresponding centrifuge tube. An appropriate amount of trypsin was added to each well to digest the cells. When the cells were digested to a moderate degree, the liquid in the centrifuge tube was added to the corresponding well. The cells were gently pipetted with a pipette to disperse the cells, and was pipetted back into the original centrifuge tube. The tube was immediately centrifuged at 1500 rpm for 5 minutes. Then, the supernatant was discarded and the precipitate was retained.
(§3) (3) 2 ml of PBS was added to the centrifuge tube, which was centrifuged again at 1000 rpm for 5 minutes. The supernatant was discarded. This step was repeated again.
(§4) (4) The cells were suspended with 1× Binding buffer, and the cell concentration was adjusted to approximately 1×10^6 cells/ml. 100 μl of cell suspension was added to the flow cytometry tube, and 5 μl of PI and 5 μl of Annexin V-FITC were added to each tube. The cells were gently vortexed, and incubated at room temperature in dark for 15 min.
(§5) (5) 400 μl of 1× Binding buffer was further added to each tube, and the detection was performed on the flow cytometer (the detection was in need to be completed within 1 hour).
(§6) We used AnnexinV-FITC and PI double staining method for apoptosis staining. FL1 channel was selected for FITC, and FL2 channel was selected for PI. Flow cytometry analysis was used to detect cell apoptosis. Q1, Q2, Q3, and Q4 represented dead cells, late apoptotic cells, early apoptotic cells, and normal cells, respectively (FIG. 7). After treating A549 and NCI-H460 cells with the compound of formula (I) at different concentrations (0 μM, 10 μM, 30 μM, and 90 μM) for 72 h, the flow cytometry results are as follows. Table 1 and Table 2 show the proportions of dead cells, late apoptotic cells, early apoptotic cells, and normal cells after treating the A549 and NCI-H460 cells with different concentrations of the compound of formula (I), respectively.

NCI-H460 cells = assay: Flow cytometry for apoptosis detection (Annexin V-FITC/PI), NCI-H460; details: 72 h
Description: as §1, §2, §3, §4, §5, §6

`COC1=C(OC)C(=O)C(CCCCCCCCCCOC(=O)Cc2c(C)n(C(=O)c3ccc(Cl)cc3)c3ccc(OC)cc23)=C(C)C1=O` [compound of formula (I)] was tested, and the colony-forming ability (A549 cells [1]) was “decreased significantly”, the “Q1 Gated % (dead cells)” value (A549 cells [2]; 10 μM) was 1.07 ± 0.51% and the “Q2 Gated % (late apoptotic cells)” value (A549 cells [2]; 10 μM) was 2.57 ± 0.48%. For the same compound, the “Q3 Gated % (early apoptotic cells)” value (A549 cells [2]; 10 μM) was 1.86 ± 0.37%, the “Q4 Gated % (normal cells)” value (A549 cells [2]; 10 μM) was 94.5 ± 0.57% and the “percentage of apoptosis (total apoptosis)” value (“percentage of apoptosis” for short) (A549 cells [2]; 10 μM) was 4.43 ± 0.11. The “Q1 Gated % (dead cells)” value (A549 cells [2]; 30 μM) was 1.34 ± 0.19%, the “Q2 Gated % (late apoptotic cells)” value (A549 cells [2]; 30 μM) was 3.08 ± 0.16% and the “Q3 Gated % (early apoptotic cells)” value (A549 cells [2]; 30 μM) was 2.58 ± 1.38%. The “Q4 Gated % (normal cells)” value (A549 cells [2]; 30 μM) was 93.05 ± 1.34%, the “percentage of apoptosis” value (A549 cells [2]; 30 μM) was 5.65 ± 1.54 and the “Q1 Gated % (dead cells)” value (A549 cells [2]; 90 μM) was 0.31 ± 0.14%. The “Q2 Gated % (late apoptotic cells)” value (A549 cells [2]; 90 μM) was 20.9 ± 3.39%, the “Q3 Gated % (early apoptotic cells)” value (A549 cells [2]; 90 μM) was 50.4 ± 1.41% and the “Q4 Gated % (normal cells)” value (A549 cells [2]; 90 μM) was 28.4 ± 4.67%. The “percentage of apoptosis” value (A549 cells [2]; 90 μM) was 71.3 ± 4.81, the “Q1 Gated % (dead cells)” value (NCI-H460 cells; 10 μM) was 1.72 ± 0.08% and the “Q2 Gated % (late apoptotic cells)” value (NCI-H460 cells; 10 μM) was 3.23 ± 2.59%. For the same compound, the “Q3 Gated % (early apoptotic cells)” value (NCI-H460 cells; 10 μM) was 1.55 ± 1.16%, the “Q4 Gated % (normal cells)” value (NCI-H460 cells; 10 μM) was 93.5 ± 3.82% and the “percentage of apoptosis” value (NCI-H460 cells; 10 μM) was 4.78 ± 3.75. For the same compound, the “Q1 Gated % (dead cells)” value (NCI-H460 cells; 30 μM) was 1.75 ± 0.45%, the “Q2 Gated % (late apoptotic cells)” value (NCI-H460 cells; 30 μM) was 4.79 ± 0.37% and the “Q3 Gated % (early apoptotic cells)” value (NCI-H460 cells; 30 μM) was 5.01 ± 1.70%. The “Q4 Gated % (normal cells)” value (NCI-H460 cells; 30 μM) was 88.45 ± 2.47%, the “percentage of apoptosis” value (NCI-H460 cells; 30 μM) was 9.8 ± 2.06 and the “Q1 Gated % (dead cells)” value (NCI-H460 cells; 90 μM) was 0.55 ± 0.04%. The “Q2 Gated % (late apoptotic cells)” value (NCI-H460 cells; 90 μM) was 9.32 ± 0.35%, the “Q3 Gated % (early apoptotic cells)” value (NCI-H460 cells; 90 μM) was 38.35 ± 2.33% and the “Q4 Gated % (normal cells)” value (NCI-H460 cells; 90 μM) was 51.85 ± 2.05%. The “percentage of apoptosis” value (NCI-H460 cells; 90 μM) was 47.67 ± 1.99.
